Assay results published in patent publication US4818761A, “2-(4-pyridylaminomethyl)-benzimidazole derivatives having antiviral activity” (priority 1986, dated 1989).
In brackets after ≈: the same amount, converted by molar mass.

Legend:
[1] = tested on: enterovirus type 70 (EV70); experiment: Inhibition of EV70 plaque formation in LLC-MK2 cells; assay type: cell-based; conditions: for CI EV70 (C)/(A): CI = CD50 (LLC-MK2)/IC50 (plaque); for IC50: Enterovirus D, plaque reduction, LLC-MK2 cells, 33° C.
in vitro = conditions: monkey, llc-mk2 cells
[2] = tested on: rhinovirus type 14 (HRV14); experiment: Inhibition of HRV14 plaque formation in HeLa cells; assay type: cell-based; conditions: Enterovirus, HRV14; plaque reduction, HeLa cells, 33° C.
[3] = tested on: coxsackievirus type B4 (CB4); experiment: Inhibition of CB4 plaque formation in LLC-MK2 cells; assay type: cell-based; conditions: for CI CB4 (C)/(A): CI = CD50 (LLC-MK2)/IC50 (plaque); for IC50: Coxsackievirus, plaque reduction, LLC-MK2 cells, 37° C.
[4] = tested on: poliovirus type 2 (Polio2); experiment: microbe, parasite or virus in culture; assay type: cell-based; conditions: for IC50: Enterovirus C, LLC-MK2, read-out: IC50 Polio2; for CI Polio2 (C)/(A): CI = CD50 (LLC-MK2)/IC50 (plaque)
[5] = tested on: enterovirus type 70 (EV70); experiment: Inhibition of EV70 cytopathogenic effect (CPE) in LLC-MK2 cells; assay type: cell-based; conditions: for IC50: Enterovirus D, * Virus CPE inhibition assay, LLC-MK2 cells, 33° C.
[6] = tested on: coxsackievirus type B4 (CB4); experiment: Inhibition of CB4 cytopathogenic effect (CPE) in LLC-MK2 cells; assay type: cell-based; conditions: for CI CB4 (C)/(A): CI = CD50 (LLC-MK2)/IC50 (virus CPE); for IC50: Coxsackievirus, * Virus CPE inhibition assay, LLC-MK2 cells, 37° C.

| SMILES | CI EV70 (C)/(A) [1] | IC50 [1] [µg/mL] | CC50 (in vitro) [µg/mL] | IC50 [2] [µg/mL] | CI CB4 (C)/(A) [3] | IC50 [3] [µg/mL] | IC50 [4] [µg/mL] | IC50 [5] [µg/mL] | CI Polio2 (C)/(A) [4] | CI CB4 (C)/(A) [6] | IC50 [6] [µg/mL] | CI EV70 (C)/(A) ([5]; CI = CD50 (LLC-MK2)/IC50 (virus CPE)) |
| --- | --- | --- | --- | --- | --- | --- | --- | --- | --- | --- | --- | --- |
| Ic1ccc2[nH]c(CNc3ccncc3)nc2c1 [III] | > 15 | 6.5 (≈ 18.6 µM) | > 100 | 6.2 (≈ 17.7 µM) | > 3 | 33 (≈ 94.2 µM) | > 100 | – | – | – | – | – |
| c1ccc(-c2ccc3[nH]c(CNc4ccncc4)nc3c2)cc1 [IX] | – | – | > 100 | – | – | – | – | > 100 | – | – | – | – |
| CC(C)CCn1c(CNc2ccncc2)nc2ccccc21.Cl [L, 1-isoamyl-2-(4-pyridylaminomethyl)benzimidazole hydrochloride] | 1,010 | 1.4 | 1410 | > 100 | 4,159 | 0.34 | 4.3 | – | 329 | – | – | – |
| OCCCCn1c(CNc2ccncc2)nc2ccccc21 [LII] | – | – | > 100 | – | – | – | – | > 100 | – | > 6 | 17.8 (≈ 60.1 µM) | – |
| c1ccc(CCCn2c(CNc3ccncc3)nc3ccccc32)cc1 [LVI] | – | – | > 100 | – | – | – | – | > 100 | – | – | > 100 | – |
| Cc1cccc(-n2c(CNc3ccncc3)nc3ccccc32)c1 [LXIII] | > 18 | 5.6 (≈ 17.8 µM) | > 100 | – | – | – | – | – | – | > 18 | 5.6 (≈ 17.8 µM) | – |
| Cc1ccccc1-n1c(CNc2ccncc2)nc2ccccc21 [LXII] | – | – | > 100 | – | – | – | – | > 100 | – | – | > 100 | – |
| FC(F)(F)c1ccc(-n2c(CNc3ccncc3)nc3ccccc32)cc1 [LXIV] | – | – | > 100 | – | – | – | – | > 100 | – | > 18 | 5.6 (≈ 15.2 µM) | – |
| Clc1ccc(-n2c(CNc3ccncc3)nc3ccccc32)cc1Cl [LXIX] | – | – | > 100 | – | – | – | – | 5.6 (≈ 15.2 µM) | – | > 18 | 5.6 (≈ 15.2 µM) | > 18 |
| COc1ccccc1-n1c(CNc2ccncc2)nc2ccccc21 [LXVII] | – | – | – | – | – | – | – | > 100 | – | – | > 100 | – |
| CCc1ccc(-n2c(CNc3ccncc3)nc3ccccc32)cc1 [LXVI] | – | > 100 | > 100 | > 100 | > 37 | 2.7 (≈ 8.22 µM) | > 100 | – | – | – | – | – |
| CC(C)(C)c1ccc2[nH]c(CNc3ccncc3)nc2c1 [VIII] | – | – | > 100 | – | – | – | – | > 100 | – | – | – | – |
| CCCCc1ccc2[nH]c(CNc3ccncc3)nc2c1 [VII] | 3 | 17.8 (≈ 63.5 µM) | 56.2 (≈ 200 µM) | – | – | – | – | – | – | – | – | – |
| CCCc1ccc2[nH]c(CNc3ccncc3)nc2c1 [V] | 93 | 3.8 (≈ 14.3 µM) | 354 (≈ 1330 µM) | – | – | > 100 | > 100 | – | – | – | – | – |
| CC(C)n1c(CNc2ccncc2)nc2ccccc21.Cl [XIII, 1-isopropyl-2-(4-pyridylaminomethyl)benzimidazole hydrochloride] | – | – | > 100 | – | > 1 | 85 | – | > 100 | – | – | – | – |
| CC=Cn1c(CNc2ccncc2)nc2ccccc21 [XIV] | – | – | > 2000 | – | > 36 | 56.2 (≈ 213 µM) | – | > 100 | – | – | – | – |
| CCCCCCCCn1c(CNc2ccncc2)nc2ccccc21 [XIX] | – | – | 354 (≈ 1050 µM) | – | 24 | 14.8 (≈ 44 µM) | – | > 100 | – | – | – | – |

| SMILES | CI EV70 (C)/(A) [1] | IC50 [1] [µg/mL] | CC50 (in vitro) [µg/mL] | IC50 [2] [µg/mL] | CI CB4 (C)/(A) [3] | IC50 [3] [µg/mL] | IC50 [4] [µg/mL] | IC50 [5] [µg/mL] | CI Polio2 (C)/(A) [4] | CI CB4 (C)/(A) [6] | IC50 [6] [µg/mL] | CI EV70 (C)/(A) ([5]; CI = CD50 (LLC-MK2)/IC50 (virus CPE)) |
| --- | --- | --- | --- | --- | --- | --- | --- | --- | --- | --- | --- | --- |
| CCn1c(CNc2ccncc2)nc2ccccc21 [XI] | – | – | 5660 (≈ 22400 µM) | – | 1,768 | 3.2 (≈ 12.7 µM) | – | > 100 | – | – | – | – |
| CCCCn1c(CNc2ccncc2)nc2cc(C)ccc21 [XLII] | 240 | 5.9 (≈ 20 µM) | 1410 (≈ 4800 µM) | > 50 | 1,010 | 1.4 (≈ 4.76 µM) | 27.6 (≈ 93.7 µM) | – | 51 | – | – | – |
| CCCCCCn1c(CNc2ccncc2)nc2ccccc21 [XVIII] | 16 | 44 (≈ 143 µM) | 707 (≈ 2290 µM) | – | 544 | 1.3 (≈ 4.21 µM) | > 100 | – | – | – | – | – |
| CCCCCn1c(CNc2ccncc2)nc2ccccc21 [XVI] | 643 | 2.2 (≈ 7.47 µM) | 1410 (≈ 4800 µM) | > 50 | > 2,828 | < 0.5 | 19 (≈ 64.5 µM) | – | 74 | – | – | – |
| CCCCn1c(CNc2ccncc2)nc2ccccc21 [XV] | > 1,429 | 1.4 (≈ 4.99 µM) | > 2000 | > 50 | > 5,405 | 0.37 (≈ 1.32 µM) | 3.2 (≈ 11.4 µM) | – | > 625 | – | – | – |
| Fc1ccc(-n2c(CNc3ccncc3)nc3ccccc32)cc1 [XXIII] | > 1,818 | 1.1 (≈ 3.46 µM) | > 2000 | 30 (≈ 94.2 µM) | > 2,410 | 0.83 (≈ 2.61 µM) | 7.8 (≈ 24.5 µM) | – | > 256 | – | – | – |
| Cc1ccc(-n2c(CNc3ccncc3)nc3ccccc32)cc1 [XXII] | 2,719 | 0.52 (≈ 1.65 µM) | 1410 (≈ 4500 µM) | 38 (≈ 121 µM) | 2,946 | 0.48 (≈ 1.53 µM) | > 10 | – | – | – | – | – |
| c1ccc(-n2c(CNc3ccncc3)nc3ccccc32)cc1 [XXI] | 943 | 1.5 (≈ 4.99 µM) | 1410 (≈ 4710 µM) | > 50 | 943 | 1.5 (≈ 4.99 µM) | 48 (≈ 160 µM) | – | 29 | – | – | – |
| CCc1cc2[nH]c(CNc3ccncc3)nc2cc1Br [XXXI, 2-(4-pyridylaminomethyl)-5(6)-ethyl-6(5)-bromobenzimidazole] | 74 | 1.2 (≈ 3.62 µM) | 88.4 (≈ 267 µM) | 1.4 (≈ 4.23 µM) | – | > 10 | 82 (≈ 248 µM) | – | 1 | – | – | – |
| CCc1cc2nc(CNc3ccncc3)[nH]c2cc1Cl [XXXII] | 134 | 0.66 (≈ 2.3 µM) | 88.4 (≈ 308 µM) | < 1 | 7 | 12.5 (≈ 43.6 µM) | 35 (≈ 122 µM) | – | 3 | – | – | – |
| COc1cc2nc(CNc3ccncc3)[nH]c2cc1OC [XXXIV] | – | – | > 100 | – | – | – | – | > 100 | – | – | – | – |
| Cn1c(CNc2ccncc2)nc2ccc(Cl)cc21 [XXXIX] | > 2 | 50 (≈ 183 µM) | > 100 | > 50 | > 1 | 82 (≈ 301 µM) | > 100 | – | – | – | – | – |
| Cc1ccc2c(c1)nc(CNc1ccncc1)n2C [XXXVI] | – | – | > 100 | – | – | – | – | > 100 | – | – | – | – |
| Fc1cc2nc(CNc3ccncc3)[nH]c2cc1Cl [XXXV] | > 15 | 6.8 (≈ 24.6 µM) | > 100 | 15.5 (≈ 56 µM) | > 3 | 34 (≈ 123 µM) | > 100 | – | – | – | – | – |
| Cc1cc2nc(CNc3ccncc3)[nH]c2cc1F [XXX] | > 8 | 12 (≈ 46.8 µM) | > 100 | 8.6 (≈ 33.6 µM) | – | > 50 | > 100 | – | – | – | – | – |
| OCCn1c(CNc2ccncc2)nc2ccccc21 [XX] | – | – | > 2000 | – | – | > 100 | – | > 100 | – | – | – | – |
| Cn1c(CNc2ccncc2)nc2ccccc21 [X] | > 30 | 33 (≈ 138 µM) | > 1000 | > 100 | > 31 | 32 (≈ 134 µM) | 170 (≈ 713 µM) | – | > 6 | – | – | – |
